Source: ChEMBL document CHEMBL5543109, “Novel β-Hairpin Antimicrobial Peptide Containing the β-Turn Sequence of -NG- and the Tryptophan Zippers Facilitate Self-Assembly into Nanofibers, Exhibiting Excellent Antimicrobial Performance” (J Med Chem, 2024)
In brackets after ≈: the same amount, converted by molar mass. Activity calls are given as the source filed them. No cut-off for these calls is given here.

Legend:
[1] = Elimination half life in Sprague-Dawley rat at 1 mg/kg, iv measured upto 120 mins by LC-MS analysis; format: ADME, organism-based; conditions: in vivo, read-out: beta t1/2
[2] = system: Staphylococcus epidermidis; assay: Antibacterial activity against Staphylococcus epidermidis ATCC 12228 incubated for 18 hrs by broth microdilution method; format: functional
[3] = system: Klebsiella pneumoniae; assay: Antibacterial activity against Klebsiella pneumoniae ATCC 700603 incubated for 18 hrs by broth microdilution method; format: functional
[4] = system: Pseudomonas aeruginosa; assay: Bactericidal activity against Pseudomonas aeruginosa ATCC 27853 incubated for 18 hrs by broth microdilution method; format: functional
[5] = system: Erythrocyte; assay: Hemolytic activity in mouse erythrocytes assessed as concentration required to cause 10% hemolysis incubated for 1 hr; format: toxicity, cell-based
[6] = Self-assembly property of compound in PBS assessed as critical aggregation concentration incubated for 48 hrs; format: physicochemical; conditions: buffer
[7] = system: Staphylococcus aureus; assay: Antibacterial activity against Staphylococcus aureus at 2 times MIC preincubated for 1 hr with trypsin followed by enzyme inactivation and bacterial addition and measured after 18 hrs; format: functional; conditions: time 19 hrs
[8] = system: Staphylococcus aureus; assay: Antibacterial activity against Staphylococcus aureus at 2 times MIC preincubated for 1 hr with chymotrypsin followed by enzyme inactivation and bacterial addition and measured after 18 hrs; format: functional; conditions: time 19 hrs
[9] = system: Pseudomonas aeruginosa; assay: Antibacterial activity against Pseudomonas aeruginosa incubated for 18 hrs in presence of CaCl2 by broth microdilution method; format: functional, organism-based
[10] = system: Staphylococcus aureus; assay: Antibacterial activity against Staphylococcus aureus incubated for 18 hrs in presence of NaCl by broth microdilution method; format: functional, organism-based
[11] = system: Staphylococcus aureus; assay: Antibacterial activity against Staphylococcus aureus incubated for 18 hrs in presence of MgCl2 by broth microdilution method; format: functional, organism-based
[12] = system: Escherichia coli; assay: Antibacterial activity against Escherichia coli at 2 times MIC preincubated with 256 ug/ml LPS for 1 hr followed by bacterial addition and measured after 5 hrs; format: functional, organism-based; conditions: time 6.0 hrs
[13] = system: Cell membrane; assay: Induction of inner membrane permeabilization in Escherichia coli ML-35 at 1/2 times MIC measured every 5 mins for 120 mins by ONPG dye based assay; format: cell membranes
[14] = system: Staphylococcus aureus; assay: Induction of morphological change in Staphylococcus aureus assessed as morphological distortion at 2 times MIC incubated for 30 mins by SEM analysis; format: functional, organism-based
[15] = system: Pseudomonas aeruginosa; assay: Induction of morphological change in Pseudomonas aeruginosa assessed as leakage of cellular contents at 2 times MIC incubated for 30 mins by SEM analysis; format: functional, organism-based
[16] = system: Cell membrane; assay: Induction of cell membrane disruption in Staphylococcus aureus assessed as PI uptake incubated for 2 hrs by PI staining based confocal laser scanning microscopy; format: cell membranes
[17] = system: Cell membrane; assay: Induction of cell membrane disruption in Escherichia coli assessed as PI uptake at 4 times MIC incubated for 2 hrs by PI staining based flow cytometry analysis (reference value: 11.9%); format: cell membranes
[18] = system: Staphylococcus aureus; assay: Additive antibacterial activity against methicillin resistant Staphylococcus aureus 75 assessed as fractional inhibitory concentration index incubated for 18 hrs in presence of ciprofloxacin by checkerboard assay; format: functional
[19] = system: Staphylococcus aureus; assay: Additive antibacterial activity against Staphylococcus aureus assessed as fractional inhibitory concentration index incubated for 18 hrs in presence of ciprofloxacin by checkerboard assay; format: functional
[20] = system: Staphylococcus aureus; assay: Synergistic antibacterial activity against methicillin resistant Staphylococcus aureus assessed as fractional inhibitory concentration index incubated for 18 hrs in presence of cefotaxime by checkerboard assay; format: functional
[21] = system: Staphylococcus aureus; assay: Additive antibacterial activity against Staphylococcus aureus 794 assessed as fractional inhibitory concentration index incubated for 18 hrs in presence of ciprofloxacin by checkerboard assay; format: functional
[22] = system: Staphylococcus aureus; assay: Synergistic antibacterial activity against methicillin resistant Staphylococcus aureus 75 assessed as fractional inhibitory concentration index incubated for 18 hrs in presence of rifampin by checkerboard assay; format: functional
[23] = system: Escherichia coli; assay: Additive antibacterial activity against rifampicin resistant Escherichia coli assessed as fractional inhibitory concentration index incubated for 18 hrs in presence of rifampin by checkerboard assay; format: functional
[24] = system: Staphylococcus aureus; assay: Synergistic antibacterial activity against methicillin resistant Staphylococcus aureus 75 assessed as fractional inhibitory concentration index incubated for 18 hrs in presence of kanamycin by checkerboard assay; format: functional
[25] = system: Staphylococcus aureus; assay: Synergistic antibacterial activity against methicillin resistant Staphylococcus aureus 113 assessed as fractional inhibitory concentration index incubated for 18 hrs in presence of kanamycin by checkerboard assay; format: functional
[26] = system: Staphylococcus aureus; assay: Additive antibacterial activity against methicillin resistant Staphylococcus aureus 113 assessed as fractional inhibitory concentration index incubated for 18 hrs in presence of streptomycin by checkerboard assay; format: functional
[27] = system: Staphylococcus aureus; assay: Additive antibacterial activity against Staphylococcus aureus 125 assessed as fractional inhibitory concentration index incubated for 18 hrs in presence of gentamycin by checkerboard assay; format: functional
[28] = system: Staphylococcus aureus; assay: Synergistic antibacterial activity against methicillin resistant Staphylococcus aureus 113 assessed as fractional inhibitory concentration index incubated for 18 hrs in presence of bacitracin by checkerboard assay; format: functional
[29] = system: Staphylococcus aureus; assay: Synergistic antibacterial activity against Staphylococcus aureus 125 assessed as fractional inhibitory concentration index incubated for 18 hrs in presence of bacitracin by checkerboard assay; format: functional
[30] = system: Escherichia coli; assay: […] antibacterial activity against Escherichia coli assessed as fractional inhibitory concentration index incubated for 18 hrs in presence of polymyxin B by checkerboard assay; format: functional
[31] = Acute toxicity in mouse assessed as mortality rate at 200 mg/kg, ip by karber method; format: organism-based; conditions: in vivo, read-out: Activity
[32] = Acute toxicity in mouse assessed as mortality rate at 300 mg/kg, ip by karber method; format: organism-based; conditions: in vivo, read-out: Activity
[33] = Acute toxicity in mouse assessed as inflammatory cell infiltration in lung at 230.5 mg/kg, ip by H and E staining based assay; format: organism-based; conditions: in vivo
[34] = Acute toxicity in mouse assessed as hepatocyte necrosis at 230.5 mg/kg, ip by H and E staining based assay; format: organism-based; conditions: hepatocytes
[35] = Acute toxicity in mouse assessed as tissue hemorrhage at 230.5 mg/kg, ip by H and E staining based assay; format: organism-based; conditions: in vivo
[36] = system: Staphylococcus aureus; assay: Antibacterial activity against Staphylococcus aureus 794 infected in BALB/c mouse skin wound infection model assessed as wound healing at 1 mg/ml, ip pre-infected with bacteria for 24 hrs followed by compound addition and measured after 13 days post infection; format: functional, organism-based; conditions: time 12.0 day
[37] = system: Staphylococcus aureus; assay: Antibacterial activity against Staphylococcus aureus 794 infected in BALB/c mouse skin wound infection model assessed as wound healing by measuring thickened scab at 1 mg/ml, ip pre-infected with bacteria for 24 hrs followed by compound addition and measured on day 9; format: functional, organism-based; conditions: time 9.0 day
[38] = Toxicity in BALB/c mouse infected with Staphylococcus aureus 794 assessed as hyperkeratosis at 1 mg/ml, ip pre-infected with bacteria for 24 hrs followed by compound addition and measured after 13 days by H and E staining based histopathological analysis; format: organism-based; conditions: in vivo, 312 h, time 13 day
[39] = Toxicity in BALB/c mouse infected with Staphylococcus aureus 794 assessed as cell necrosis at 1 mg/ml, ip pre-infected with bacteria for 24 hrs followed by compound addition and measured after 13 days in presence of vancomycin by H and E staining based histopathological analysis; format: organism-based; conditions: in vivo, 312 h, time 13 day
[40] = system: Staphylococcus aureus; assay: Antibacterial activity against kanamycin resistant Staphylococcus aureus assessed as fractional inhibitory concentration index incubated for 18 hrs in presence of kanamycin by checkerboard assay; format: functional
[41] = system: Staphylococcus aureus; assay: Antibacterial activity against methicillin resistant Staphylococcus aureus 75 incubated for 18 hrs by broth microdilution method; format: functional
[42] = system: Staphylococcus aureus; assay: Antibacterial activity against kanamycin resistant Staphylococcus aureus incubated for 18 hrs by broth microdilution method; format: functional

NCCCC[C@@H](NC(=O)[C@H](N)Cc1c[nH]c2ccccc12)C(=O)N[C@H](Cc1c[nH]c2ccccc12)C(=O)N[C@H](CCCCN)C(=O)N[C@H](Cc1c[nH]c2ccccc12)C(=O)N[C@@H](CC(N)=O)C(=O)NCC(=O)N[C@H](Cc1c[nH]c2ccccc12)C(=O)N[C@H](CCCCN)C(=O)N[C@H](Cc1c[nH]c2ccccc12)C(=O)N[C@H](CCCCN)C(=O)N[C@H](Cc1c[nH]c2ccccc12)C(N)=O
half-life [1]: 11.4 min | MIC [2]: 4 µM (≈ 7.27 µg/mL) | MIC [3]: 8 µM (≈ 14.5 µg/mL) | MBC [4]: 32 µM (≈ 58.2 µg/mL) | MHC [5]: > 512 µM | CAC [6]: 7.78 µM | Activity [7]: 100% | Activity [8]: 100% | Activity [9]: Active | Activity [10]: Active | Activity [11]: Active | Activity [12]: inactive | Activity [13]: inactive | Activity [14]: Active | Activity [15]: Active | Activity [16]: Dose-Dependent Effect | Activity [17]: 92.8% | fractional inhibitory concentration index (FICI) [18]: 0.563 | fractional inhibitory concentration index (FICI) [19]: 1 | fractional inhibitory concentration index (FICI) [20]: 0.313 | fractional inhibitory concentration index (FICI) [21]: 0.563 | fractional inhibitory concentration index (FICI) [22]: 0.313 | fractional inhibitory concentration index (FICI) [23]: 0.563 | fractional inhibitory concentration index (FICI) [24]: 0.5 | fractional inhibitory concentration index (FICI) [25]: 0.5 | fractional inhibitory concentration index (FICI) [26]: 0.563 | fractional inhibitory concentration index (FICI) [27]: 0.563 | fractional inhibitory concentration index (FICI) [28]: 0.5 | fractional inhibitory concentration index (FICI) [29]: 0.5 | fractional inhibitory concentration index (FICI) [30]: 0.375 | mortality [31]: 20% | mortality [32]: 100% | Activity [33]: Toxic | Activity [34]: Toxic | Activity [35]: Toxic | Activity [36]: Active | Activity [37]: Active | Activity [38]: Non-Toxic | Activity [39]: Toxic | fractional inhibitory concentration index (FICI) [40]: 0.563 | MIC [41]: 8 µM (≈ 14.5 µg/mL) | MIC [42]: 4 µM (≈ 7.27 µg/mL)
